These are literature values, as cited in patent US11225464B2, “Compositions and methods for the treatment of gastrointestinal polyps” (CELLIX BIO PRIVATE LIMITED, priority 2016, dated 2022).

For data set [1] the following is noted: long-term users.
In the next data set the test system is colorectal adenomas. As to conditions: FAP patients; long-term use; colon as well as rectum of patients after colectomy.
In a further data set the test system is duodenal adenomas. As to conditions: FAP patients.

`CS(=O)(=O)c1ccc(C2=C(c3ccccc3)C(=O)OC2)cc1` [rofecoxib]: the cardiovascular effects result in data set [1] is “cardiovascular effects (myocardial infarction or stroke) have been described”.

With `CC1=C(CC(=O)O)c2cc(F)ccc2/C1=C\c1ccc([S+](C)[O-])cc1` (stereo not drawn) [sulindac], the “reduction of the number of colorectal adenomas” value in the data set with colorectal adenomas is recorded as over 50%. Besides, in the data set on duodenal adenomas, the “effect on duodenal polyposis / number of duodenal adenomas” value is “not in duodenal polyposis”.
